Experimental findings from US7723265B2, “Pesticide compositions containing oxalic acid” (Monsanto Technology, priority 2000, dated 2010) are described below.

Structures are written as SMILES. Like-named read-outs stand apart in the source and are kept apart here.

Common to all, as to type: in vivo
Assay [1] relates to velvetleaf (Abutilon theophrasti, ABUTH). The assay is described as follows: Greenhouse test of herbicidal effectiveness (visual percent control) on velvetleaf. An excerpt:
(§1) The following procedure was used for testing compositions of the Examples to determine herbicidal effectiveness, except where otherwise indicated.
Seeds of the plant species indicated were planted in 85 mm square pots in a soil mix which was previously steam sterilized and prefertilized with a 14-14-14 NPK slow release fertilizer at a rate of 3.6 kg/m3. The pots were placed in a greenhouse with sub-irrigation. About one week after emergence, seedlings were thinned as needed, including removal of any unhealthy or abnormal plants, to create a uniform series of test pots.
The plants were maintained for the duration of the test in the greenhouse where they received a minimum of 14 hours of light per day. […] Exposure temperatures were not precisely controlled but averaged about 27° C. during the day and about 18° C. during the night. Plants were sub-irrigated throughout the test to ensure adequate soil moisture levels.
(§2) Pots were assigned to different treatments in a randomized experimental design with 6 replications. A set of pots was left untreated as a reference against which effects of the treatments could later be evaluated.
Application of glyphosate compositions was made by spraying with a track sprayer fitted with a 9501E nozzle calibrated to deliver a spray volume of 93 liters per hectare (l/ha) at a pressure of 166 kilopascals (kPa). After treatment, pots were returned to the greenhouse until ready for evaluation.
Treatments were made using dilute aqueous compositions. These could be prepared as spray compositions directly from their ingredients, or by dilution with water of preformulated concentrate compositions.
For evaluation of herbicidal effectiveness, all plants in the test were examined by a single practiced technician, who recorded percent control, a visual measurement of the effectiveness of each treatment by comparison with untreated plants. […] The reported % control values represent the average for all replicates of each treatment.

Assay [2] relates to Japanese millet (Echinochloa crus-galli var. frumentae, ECHCF). Description: Herbicidal effectiveness (percent control) on Japanese millet. To be noted: comparison as worded in the text of the example.
From the text: as §1
(§3) Seeds of the plant species indicated were planted in 85 mm square pots in a soil mix which was previously steam sterilized and prefertilized with a 14-14-14 NPK slow release fertilizer at a rate of 3.6 kg/m3. The pots were placed in a greenhouse with sub-irrigation. About one week after emergence, seedlings were thinned as needed, including removal of any unhealthy or abnormal plants, to create a uniform series of test pots. […]
as §2
(§4) Application of glyphosate compositions was made by spraying with a track sprayer fitted with a 9501E nozzle calibrated to deliver a spray volume of 93 liters per hectare (l/ha) at a pressure of 166 kilopascals (kPa). After treatment, pots were returned to the greenhouse until ready for evaluation. […]
(§5) For evaluation of herbicidal effectiveness, all plants in the test were examined by a single practiced technician, who recorded percent control, a visual measurement of the effectiveness of each treatment by comparison with untreated plants. […]

A further assay deals with morningglory (IPOSS). Description: Herbicidal effectiveness (percent control) on morningglory. To be noted: comparison as worded in the text of the example.
From the text: as §1, §3, §2, §4, §5

Assay [3] has as its system Yellow nutsedge (Cyperus esculentus, CYPES). Description: Herbicidal effectiveness (percent control) on yellow nutsedge. To be noted: 0.03% oxalic acid in potassium glyphosate tank mixes.
The next assay deals with Prickly sida (SIDSP). The assay is described as follows: Herbicidal effectiveness (percent control) on prickly sida. The settings on record: comparison as worded in the text of the example.
From the text: as §1, §3, §2, §4, §5

For a further assay, the system named is hemp sesbania (SEBEX). The assay is described as follows: Herbicidal effectiveness (percent control) on hemp sesbania. The settings on record: comparison as worded in the text of the example.
From the text: as §1, §3, §2, §4, §5

A further assay relates to sicklepod (CASOB). The assay is described as follows: Herbicidal effectiveness (percent control) on sicklepod. The settings on record: comparison as worded in the text of the example.
The subject of another assay is velvetleaf (ABUTH). The assay is described as follows: Rainfastness of Roundup UltraMax with oxalic acid on velvetleaf. To be noted: glyphosate a.e.:oxalic acid 15:1; 0.25 inches of rain one or two hours after treatment, or no rain. The procedure: The rainfastedness of a Roundup UltraMax and oxalic acid, at a weight ratio of glyphosate a.e. to oxalic acid of 15:1, was evaluated. The Roundup UltraMax formulations were applied at rates of 300 and 500 g a.e./ha and evaluated with no rain, 0.25 inches of rain at one hour after treatment, and 0.25 inches of rain at two hours after treatment.

For the next assay, the system named is Indian Mustard (BRSJU). Description: Herbicidal effectiveness (percent control) on Indian mustard. To be noted: comparison as worded in the text of the example.
From the text: as §1, §3, §2, §4, §5

[4] abbreviates: comparison as worded in the text of the example.

Consider `CC(=O)O` [Acetic acid], for which the “herbicidal efficacy on velvetleaf (ABUTH), result in words” value (from here on “herbicidal efficacy on velvetleaf”) in [1] (setting [4]) is given as “did not significantly effect the efficacy”.

Turning to `C[N+](C)(C)Cc1ccccc1.[Cl-]` [Benzyltrimethylammonium chloride], the “herbicidal efficacy on velvetleaf” value in assay [1] (setting [4]) is listed as “better efficacy than did the commercial Roundup UltraMax standard”.

For `C[N+](C)(C)Cc1ccccc1.[OH-]` [Benzyltrimethylammonium hydroxide], the “herbicidal efficacy on velvetleaf” value in [1] (setting [4]) was “better efficacy than did the commercial Roundup UltraMax standard”.

For `O=C(O)CC(O)(CC(=O)O)C(=O)O` [Citric acid], the “herbicidal efficacy on velvetleaf” value is recorded as “did not significantly effect the efficacy” in [1] (setting [4]) and “did not have significant impact on the efficacy” in [1] (comparison as worded in the text of the example, listed as citric acid).

On to `O=C([O-])C(=O)[O-].[K+].[K+]` [Dipotassium oxalate, dipotassium oxalate], for which, in assay [1] (setting [4]), the “herbicidal efficacy on velvetleaf” value was “enhanced efficacy regardless of the glyphosate salt”. Further, in [2], the “herbicidal efficacy on ECHCF (barnyardgrass), result in words” value is “relatively ineffective for enhancing efficacy against barnyardgrass”.

For `O=C(O)[C@H](O)[C@@H](O)[C@H](O)[C@H](O)CO` [Gluconic acid], in assay [1] (setting [4]), the “herbicidal efficacy on velvetleaf” value is listed as “did not significantly effect the efficacy”.

Consider `CC(O)C(=O)O` (centres unmarked) [Lactic acid], for which, in assay [1] (setting [4]), the “herbicidal efficacy on velvetleaf” value is recorded as “did not significantly effect the efficacy”.

With `O=C(O)C(=O)O` [Oxalic acid], the “herbicidal efficacy on morningglory (IPOSS), result in words” value with morningglory (IPOSS) is given as “equally effective in enhancing Roundup UltraMax efficacy on morningglory”. Moreover, the “herbicidal efficacy on yellow nutsedge (CYPES), result in words” value in assay [3] is “did not provide synergy on yellow nutsedge”. In addition, the “herbicidal efficacy on velvetleaf” value in assay [1] is listed as “further increased efficacy”. Moreover, the “herbicidal efficacy on prickly sida (SIDSP), result in words” value in the assay with Prickly sida (SIDSP) is “gave efficacy enhancement”. In addition, the “herbicidal efficacy on ECHCF (barnyardgrass), result in words” value in assay [2] is “did not significantly enhance glyphosate efficacy on barnyardgrass”. In the assay on hemp sesbania (SEBEX), the “herbicidal efficacy on hemp sesbania (SEBEX), result in words” value is listed as “equal with the standards regardless of the presence of oxalic acid”. Also, the “herbicidal efficacy on sicklepod (CASOB), result in words” value in the assay on sicklepod (CASOB) was “did not give statistically significant efficacy enhancement on sicklepod”. The “rainfastness on velvetleaf, result in words” value with velvetleaf (ABUTH) was “did not provide any rainfastness properties for Roundup UltraMax on velvetleaf”. The “herbicidal efficacy on Indian mustard (BRSJU), result in words” value with Indian Mustard (BRSJU) is listed as “did not provide significant efficacy enhancement on Indian mustard”.

As for `O=P(O)(O)O` [Phosphoric acid], the “herbicidal efficacy on velvetleaf” value is given as “did not significantly effect the efficacy” in [1] (setting [4]) and “did not have significant impact on the efficacy” in assay [1] (comparison as worded in the text of the example, listed as phosphoric acid).

Regarding `NC(=O)CCC(=O)O` [Succinamic acid], in assay [1] (setting [4]), the “herbicidal efficacy on velvetleaf” value was “antagonistic effect on glyphosate efficacy”.

For the molecule `O=C(O)CCC(=O)O` [Succinic acid], the “herbicidal efficacy on velvetleaf” value in assay [1] (setting [4]) is “did not significantly effect the efficacy”.

Consider `O=C(O)CCCCC(=O)O` [adipic acid, Adipic acid], for which the “herbicidal efficacy on velvetleaf” value in assay [1] (setting [4]) was “some increased efficacy”.
